Assay results reported in US10799590B2, “Compositions containing a bitter tastant and at least one sophorolipid, and methods of reducing bitter taste attributed to a bitter tastant in an edible composition” (The United States of America, as Represented by the …, priority 2015, dated 2020).

Tests used:
[1] = tested on: cultured human fungiform taste papillae cells (HBO cells); assay: Calcium imaging of cultured human fungiform taste papillae (HBO) cells: response frequency, estimation of sweet potency; format: cell-based
From the text: In vitro cell-based assay of sweet property. Establishment and maintenance of cultures of human fungiform taste papillae cells (HBO cells): We previously established the current proprietary protocol (Ozdener, H., et al., Chem. Senses, 31(3): 279-90 (2006); Ozdener, M. H., et al., Chem. Senses, 36(7): 601-12 (2011); Ozdener, H., et al., Isolation and culture of human fungiform taste papillae cells, J. Vis. Exp., 2012 May 17;(63):e3730) which allowed us to culture human fungiform taste papillae cells retaining their physiological and molecular characteristics for more than a year. […] The human fungiform taste papillae cells were cultured according to protocols that we have published (Ozdener et al. 2006, Ozdener et al. 2011). Human fungiform taste papillae were removed and immediately placed into an isolation solution followed by enzymatic digestion. Digested fungiform papillae were then gently minced with a surgical razor and seeded on collagen type-1 coated coverslips and incubated at 36° C. in a humidified environment containing 5% CO2. The fungiform taste papillae cells were cultured in Iscove's Modified Dulbecco's medium containing 10% fetal bovine serum, 1:5 ratio of MCDB (Molecular, Cellular, and Developmental Biology) 153 medium, and a triple cocktail of antibiotics (100 U/mL/100 μg/mL, penicillin/streptomycin, and 0.5 μg/mL fungizone). Culture medium was replaced every 5-7 days by one-third of fresh culture medium. Human fungiform taste papillae cells have been maintained in culture for a period of more than 1 year without loss of viability and with retention of the molecular and biochemical properties of acutely isolated taste cells (Ozdener et al., 2011). Calcium imaging: Cultured taste cells grown for 3-4 days glass coverslips which were loaded for 30-60 min with the calcium sensitive dye fura-2 by incubating the cells in Ringer solution (145 mM NaCl, 5 mM KCl, 1 mM MgCl2, 1 mM CaCl2, 1 mM Na-pyruvate, 20 mM Hepes-Na and Cellobiose 15 mM, pH 7.2 with osmolarity adjusted to 300-310 by 5M NaCl) supplemented with […] (Molecular Probes Inc., Eugene, Oreg.) and 10 mg/ml Pluronic® F127 (Molecular Probes Inc.). Coverslips were then placed in a recording chamber and continuously bathed with Ringer solution superfusion. Stimuli were dissolved in Ringer and then pH and osmolarity readjusted if needed. Cells were exposed to sweet ([…]), bitter mixture (PTC (phenylthiocarbamide)) 2mM+Salicin 5 mM+Denatonium 2 mM), guaifenesin (GF, 3 mM) and acetaminophen (APAP, 3 mM), and various sophorolipids stimuli: sophorose, sophorolipid palmitic acid, sophorolipid stearic acid, sophorolipid oleic acid. […]

[2] = tested on: T1R3; assay: Chorda tympani whole-nerve responses to lingual taste stimuli, T1R3-KO mice; format: in vivo; conditions: lingual application (FIG. 6A, 7)
Procedure: (§1) Mouse model for sweet property and bitter-masking assay. Recordings of chorda tympani (CT) whole-nerve responses: All protocols involving animals were approved by the Institutional Animal Care and Use Committees at the Monell Center prior to the experiments. The study was performed with mice from two strains: C57BL/6J inbred strain (B6; Jackson Laboratory, Bar Harbor, Me.) bearing the wild-type Tas1r3 allele was used as the control, and the C57BL/6J-Tas1r3^tm1Rjm “gene-knockout” strain (T1R3-KO) lacking the entire T1R3 coding region and devoid of T1R3 protein ([…]., et al., Science, 301: 850-853 (2003)). Afferent signals from taste cells are relayed to the brain via three major gustatory nerves: the chorda tympani, glossopharyngeal, and greater superficial petrosal. […] Neural responses resulting from chemical stimulations of the tongue were fed into an amplifier (Grass Instruments, West Warwick, R.I.) and monitored on an oscilloscope and an audio monitor. Whole-nerve responses were integrated with a time constant of 1.0 s and recorded using a computer for later analysis using a PowerLab system (PowerLab/sp4; AD Instruments, Colorado Springs, Colo.). […] To analyze nerve responses to each stimulus, the magnitudes of integrated responses at 5, 10, 15, 20, and 25 s after stimulus onset were measured and averaged. […]

[3] = tested on: chorda tympani nerve of wild-type B6 mice; assay: Chorda tympani whole-nerve responses to lingual taste stimuli, wild-type B6 mice; format: in vivo; conditions: lingual application (FIG. 6B, 7)
Procedure: as §1

In the case of `OC[C@H]1O[C@H](O[C@]2(CCl)O[C@H](CCl)[C@@H](O)[C@@H]2O)[C@H](O)[C@@H](O)[C@H]1Cl` [Sucralose, sucralose], the “%-responsive cells” value ([1]; cultured human taste cells, concentration 5 mM) is reported as 16.67% and the “Concentration adjusted response frequency” value ([1]; tested at 5 mM, sucralose 5 mM is the standard) is reported as 16.67.
`OC[C@H]1O[C@@](CO)(O[C@H]2O[C@H](CO)[C@@H](O)[C@H](O)[C@H]2O)[C@@H](O)[C@@H]1O` [sucrose] was tested, and the chorda tympani responses [2] was “nearly absent” and the chorda tympani responses [3] was “present”.
